Common to all, as to conditions: 504 h
For assay [1], the system named is Amaranthus tamariscinus (AMATA). As to the kind of experiment: Greenhouse post-emergence weed control, common waterhemp. It counts as in vivo. The source says: (§1) For post-emergence treatments, glufosinate and oxadiazon, which had been suspended in water, were applied using spray nozzles providing fine to coarse droplets.
(§2) The herbicide compounds applied in the examples were used as experimental or commercially available solo or premix formulations which have been diluted with tap water to a suitable concentration. Glufosinate was used as a commercial SL formulation containing 280 g ai/l of glufosinate (Liberty 280 SL, BASF). While the PPO herbicide Ronstar Flo containing 380 g ai/l oxadiazon was used (Ronstar Flo, Bayer) formulation.
(§3) The evaluation for plant injury or damage caused by the chemical compositions was carried out using a scale from 0-100% when compared with the untreated control plants. Here, 0 means no damage and 100 means complete destruction of the plants.
(§4) 22., E=X+Y−(X*Y/100), where
(§5) X=effect in percent using herbicide A at an application rate of a;
(§6) Y=effect in percent using herbicide B at an application rate of b;
(§7) E=expected effect (in %) of A+B at application rates a+b.
(§8) The value E corresponds to the effect (plant damage or injury) which is to be expected if the activity of the individual compounds is just additive. If the observed effect is higher than the value E calculated according to Colby, a synergistic effect is present. […]

The subject of assay [2] is Echinochloa crus-galli (ECHCG). The assay is described as follows: Greenhouse post-emergence weed control, barnyardgrass. It counts as in vivo.
Excerpt: as §1, §2, §3, §4, §5, §6, §7, §8

The subject of assay [3] is Amaranthus Palmerii (AMAPA). As to the kind of experiment: Greenhouse post-emergence weed control, Palmer amaranth. The format is in vivo, Amaranthus palmeri.
Excerpt: as §1, §2, §3, §4, §5, §6, §7, §8

Assay [4] concerns Lolium multiflorum (LOLMU). The assay is described as follows: Greenhouse post-emergence weed control, Italian ryegrass. It counts as in vivo.
Excerpt: as §1, §2, §3, §4, §5, §6, §7, §8

Where [5] appears, read: post-emergence, read-out: Solo Glufosinate % activity.

Regarding `CP(=O)(O)CCC(N)C(=O)O` (racemic) [Glufosinate, (2RS)-2-amino-4-[hydroxy(methyl)phosphinoyl]butyric acid], the inhibition at 327 g/ha in assay [1] (setting [5]) amounted to 93%; in assay [2] (setting [5]), 40%; in assay [3] (setting [5]) it was 94%; in assay [4] (setting [5]), 33%.
In the case of `CC(C)Oc1cc(-n2nc(C(C)(C)C)oc2=O)c(Cl)cc1Cl` [Oxadiazon], the inhibition at 0.8 g/ha in assay [1] (AMATA, 0.8 g ai/ha post-emergence, 1% (v/v) MSO, 21 DAT, scale 0-100% injury, read-out: Solo Oxadiazon % activity) was found to be 28%; in assay [2] (ECHCG, 0.8 g ai/ha post-emergence, 1% (v/v) MSO, 21 DAT, scale 0-100% injury, read-out: Solo Oxadiazon % activity), 30%; in assay [3] (AMAPA, 0.8 g ai/ha post-emergence, 1% (v/v) MSO, 21 DAT, scale 0-100% injury, read-out: Solo Oxadiazon % activity), 27%; in assay [4] (LOLMU, 0.8 g ai/ha post-emergence, 1% (v/v) MSO, 21 DAT, scale 0-100% injury, read-out: Solo Oxadiazon % activity), 28%.

These data come from patent publication US20230088774A1, “Herbicide Combinations Comprising Glufosinate and Oxadiazon” (BASF SE, priority 2020, published 2023).
